From publication PMC11443518, “Undescribed Amaryllidaceae Alkaloids from Zephyranthes citrina and Their Cytotoxicity” (Journal of Natural Products, 2024)
Values joined by “and” are separate entries in the source; they are usually repeats but may differ in a detail not shown here. Equal entries are not always repeated. Where two headings read alike, the source gives them in different places.

Experiments:
[1] = test system: MCF-7 (breast adenocarcinoma); assay: WST-1 cell proliferation assay, cytotoxicity screening; type: cell-based, human; conditions: Homo sapiens, read-out: growth percent (GP) MCF-7
From the text: (§1) Selected human tumor and nontumor cell lines Jurkat (acute T-cell leukemia), MOLT-4 (acute lymphoblastic leukemia), A549 (lung carcinoma), HT-29 (colorectal adenocarcinoma), PANC-1 (pancreas epithelioid carcinoma), A2780 (ovarian carcinoma), HeLa (cervix adenocarcinoma), MCF-7 (breast adenocarcinoma), SAOS-2 (osteosarcoma) and MRC-5 (nontumor lung fibroblasts) were purchased from European Collection of Authenticated Cell Cultures (ECACC, Salisbury, UK) and cultured according to the provider’s culture method guidelines. […] The cells in low passage number (nontumor primary cell line MRC-5 was used for a maximum of 10 passages and cancer cell lines were used for a maximum of 20 passages) and in an exponential growth phase were used for this study.
(§2) Each cell line was seeded at a previously established optimal density (1 × 10^3 to 50 × 10^3 cells per well) in a 96-well plate (TPP, Trasadingen, Switzerland) and cells were allowed to settle overnight. During screening tests for cytotoxicity, cells were treated with alkaloids at a final concentration of 10 μM for 48 h. Doxorubicin (Sigma-Aldrich, St. Louis, USA), at a concentration of 1 μM, was used as a positive control. At the end of the culture period, the WST-1 proliferation assay (Roche, Basel, Switzerland) was performed according to the manufacturer’s protocol. The absorbance was determined using a Tecan Spark microplate reader (Tecan, Männedorf, Switzerland). Each value is the mean of three independent experiments and represents the percentage of the proliferation of control, nontreated cells (100%). The growth percent (GP) value as the mean of the proliferation decrease was calculated for each cell line and derivative tested.

[2] = test system: MOLT-4 (acute lymphoblastic leukemia); assay: as above; type: cell-based, human; conditions: Homo sapiens, read-out: growth percent (GP) MOLT-4
From the text: as §1, §2

[3] = molecular target: T1, hAChE (Homo sapiens, UniProt P22303); assay: biochemical; type: biochemical; conditions: recombinant AChE, Ellman, 37 °C
T1 construct: purchased University Hradec Kralove, Department of Chemistry, Faculty of Science
Description: (§3) The hAChE and hBChE activities were determined using a modified method of Ellman, as described by Hrabinova and co-workers against recombinant AChE and recombinant BChE (purchased from University Hradec Kralove, Department of Chemistry, Faculty of Science).[43] Other used chemicals were phosphate buffer solution (PBS, pH = 7.4), 5,5′-dithio-bis(2-nitrobenzoic) acid (Ellman’s reagent, DTNB), acetylthiocholine iodide (ATChI), butyrylthiocholine iodide (BTChI), and dimethyl sulfoxide (DMSO) (all chemicals were purchased from Sigma-Aldrich, Prague, Czech Republic).
(§4) Briefly, 8.3 μL of the corresponding enzyme, 283 μL of 5 mM DTNB, and 8.3 μL of the sample dilution in DMSO in different concentrations were added to the microplate. These solutions were incubated for 5 min at 37 °C. Then, 33.3 μL of 10 mM substrate (ATChI or BTChI) was added to initiate the reaction, and the whole reaction mixture was incubated for 2 min at 37 °C. […] This difference after 1 min was used to calculate the percentage of inhibitory potential of the given derivative. Each measurement was repeated three times for every concentration of the compound. 8.3 μL DMSO was used as a blank. The % inhibition was calculated according to the following formula: [drawing 3] where ΔABl is the increase of absorbance of the blank sample and ΔASa is the increase of absorbance of the measured sample.

[4] = molecular target: T2, hBChE (Homo sapiens, UniProt P06276); assay: biochemical; type: biochemical; conditions: recombinant BChE, Ellman, 37 °C
T2 construct: purchased University Hradec Kralove, Department of Chemistry, Faculty of Science
Description: as §3, §4

[5] = test system: nine human tumor and one nontumor cell lines; assay: Cytotoxicity screening across the whole panel of cell lines; type: cell-based; conditions: Homo sapiens, read-out: GP value across the tested cell lines
From the text: Concerning the cytotoxicity of alkaloids isolated from Z. citrina, initially, Prakash and Vedanayaki investigated the MeOH extract of the bulbs for its in vitro cytotoxic activity using the MTT assay against three human cancer cell lines from different tissue origins: cervical cancer (HeLa), breast cancer (MCF-7), and oral squamous carcinoma (SCC-9). […] In this context, and to assess potential negative effects on human cell cultures, compounds 1, and 3–27 were screened in our study for cytotoxicity using a 10 μM single-dose regimen. The results were compared with those using the clinically approved antineoplastic agent doxorubicin at 1 μM. The effect on cell growth was investigated on nine human tumor and one nontumor cell lines, namely Jurkat (acute T-cell leukemia), MOLT-4 (acute lymphoblastic leukemia), A549 (lung carcinoma), HT-29 (colorectal adenocarcinoma), PANC-1 (pancreas epithelioid carcinoma), A2780 (ovarian carcinoma), HeLa (cervix adenocarcinoma), MCF-7 (breast adenocarcinoma), SAOS-2 (osteosarcoma) and MRC-5 (nontumor lung fibroblasts). […] No toxicity is valuable information, especially for compound 18, as it is a potent inhibitor of hAChE and hBChE.[27]
Selected human tumor and nontumor cell lines Jurkat (acute T-cell leukemia), MOLT-4 (acute lymphoblastic leukemia), A549 (lung carcinoma), HT-29 (colorectal adenocarcinoma), PANC-1 (pancreas epithelioid carcinoma), A2780 (ovarian carcinoma), HeLa (cervix adenocarcinoma), MCF-7 (breast adenocarcinoma), SAOS-2 (osteosarcoma) and MRC-5 (nontumor lung fibroblasts) were purchased from European Collection of Authenticated Cell Cultures (ECACC, Salisbury, UK) and cultured according to the provider’s culture method guidelines. All cell lines were maintained at 37 °C in a humidified 5% carbon dioxide and 95% air incubator. The cells in low passage number (nontumor primary cell line MRC-5 was used for a maximum of 10 passages and cancer cell lines were used for a maximum of 20 passages) and in an exponential growth phase were used for this study.
as §2

[6] = test system: HeLa (cervix adenocarcinoma); assay: WST-1 cell proliferation assay, cytotoxicity screening; type: cell-based; conditions: Homo sapiens, 48 h, read-out: growth percent (GP) HeLa
From the text: as §1, §2

[7] = test system: HT-29 (colorectal adenocarcinoma); assay: as above; type: cell-based; conditions: Homo sapiens, read-out: growth percent (GP) HT-29
From the text: as §1, §2

[8] = test system: PANC-1 (pancreas epithelioid carcinoma); assay: as above; type: cell-based; conditions: Homo sapiens, read-out: growth percent (GP) PANC-1
From the text: as §1, §2

[9] = test system: MRC-5 (nontumor lung fibroblasts); assay: as above; type: cell-based; conditions: Homo sapiens, read-out: growth percent (GP) MRC-5
From the text: as §1, §2

[10] = test system: SAOS-2 (osteosarcoma); assay: as above; type: cell-based; conditions: Homo sapiens, read-out: growth percent (GP) SAOS-2
From the text: as §1, §2

[11] = test system: A549 (lung carcinoma); assay: as above; type: cell-based; conditions: Homo sapiens, read-out: growth percent (GP) A549
From the text: as §1, §2

[12] = test system: Jurkat (acute T-cell leukemia); assay: as above; type: cell-based; conditions: Homo sapiens, 48 h, read-out: growth percent (GP) Jurkat
From the text: as §1, §2

[13] = test system: A2780 (ovarian carcinoma); assay: as above; type: cell-based; conditions: Homo sapiens, read-out: growth percent (GP) A2780
From the text: as §1, §2

[14] = MCF7, c = 10 μM, 48 h, % of proliferation of nontreated control
[15] = MOLT-4, c = 10 μM, 48 h, % of proliferation of nontreated control
[16] = 10 μM single dose, 48-h interval, all tested cell lines
[17] = c = 10 μM, % of proliferation of nontreated control
[18] = HT-29, c = 10 μM, 48 h, % of proliferation of nontreated control
[19] = PANC-1, c = 10 μM, 48 h, % of proliferation of nontreated control
[20] = MRC5, c = 10 μM, 48 h, % of proliferation of nontreated control
[21] = SAOS-2, c = 10 μM, 48 h, % of proliferation of nontreated control
[22] = A549, c = 10 μM, 48 h, % of proliferation of nontreated control
[23] = A2780, c = 10 μM, 48 h, % of proliferation of nontreated control

T1 sequence (P22303 32-614): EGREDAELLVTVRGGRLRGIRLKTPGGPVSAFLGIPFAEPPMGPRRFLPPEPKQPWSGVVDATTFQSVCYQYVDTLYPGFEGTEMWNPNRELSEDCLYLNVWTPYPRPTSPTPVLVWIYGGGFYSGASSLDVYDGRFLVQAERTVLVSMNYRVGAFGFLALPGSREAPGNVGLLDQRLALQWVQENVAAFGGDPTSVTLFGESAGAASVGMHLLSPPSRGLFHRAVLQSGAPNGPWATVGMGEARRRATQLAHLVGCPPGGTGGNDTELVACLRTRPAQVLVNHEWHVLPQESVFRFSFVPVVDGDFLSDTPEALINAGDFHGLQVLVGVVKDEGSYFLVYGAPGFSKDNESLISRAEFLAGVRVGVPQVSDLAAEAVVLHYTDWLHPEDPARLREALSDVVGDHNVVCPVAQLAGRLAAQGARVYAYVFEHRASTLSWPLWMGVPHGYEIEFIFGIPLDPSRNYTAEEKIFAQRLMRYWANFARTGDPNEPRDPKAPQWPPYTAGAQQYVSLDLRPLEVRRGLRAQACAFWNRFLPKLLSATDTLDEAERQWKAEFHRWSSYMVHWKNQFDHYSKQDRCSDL
T2 sequence (P06276 29-602): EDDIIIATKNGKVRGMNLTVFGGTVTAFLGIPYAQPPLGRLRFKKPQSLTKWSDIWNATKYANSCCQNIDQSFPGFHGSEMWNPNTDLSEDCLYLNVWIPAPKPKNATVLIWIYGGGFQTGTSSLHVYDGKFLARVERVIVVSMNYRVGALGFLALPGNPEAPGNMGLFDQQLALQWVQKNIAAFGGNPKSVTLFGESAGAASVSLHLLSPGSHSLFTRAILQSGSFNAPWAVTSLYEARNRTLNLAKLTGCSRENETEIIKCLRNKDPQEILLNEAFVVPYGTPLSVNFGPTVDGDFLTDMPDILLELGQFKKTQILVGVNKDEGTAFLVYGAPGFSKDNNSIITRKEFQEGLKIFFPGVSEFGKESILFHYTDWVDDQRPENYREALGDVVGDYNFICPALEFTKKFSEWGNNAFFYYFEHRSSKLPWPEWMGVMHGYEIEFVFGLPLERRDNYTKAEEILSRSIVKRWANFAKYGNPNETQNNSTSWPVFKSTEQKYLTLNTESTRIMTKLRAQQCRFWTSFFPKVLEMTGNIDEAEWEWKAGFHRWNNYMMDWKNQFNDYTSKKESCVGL

Structure (SMILES): COc1cc2c(cc1OC)[C@@]13C=C[C@@H](OC)C[C@@H]1N(C2)C[C@@H]3O [Compound 1, zephycitrine]
- activity at 10 µM [1, 14]: 106%
- activity at 10 µM [2, 15]: 99%
- IC50 [3]: > 100 µM
- IC50 [4]: > 100 µM
- activity at 10 µM [5, 16]: > 50%
- activity at 10 µM [6, 17]: 97%
- activity at 10 µM [7, 18]: 101%
- activity at 10 µM [8, 19]: 102%
- activity at 10 µM [9, 20]: 107%
- activity at 10 µM [10, 21]: 101%
- activity at 10 µM [11, 22]: 100%
- activity at 10 µM [12, 17]: 111%
- activity at 10 µM [13, 23]: 98%

Structure (SMILES): COc1cc2c(cc1OC)[C@@H]1[C@H](O)[C@@H](OC)[C@H](O)C3=CCN(C2=O)[C@H]31 [Compound 2, 6-oxonarcissidine]
- IC50 [3]: > 100 µM
- IC50 [4]: > 100 µM

Structure (SMILES): CCO[C@H]1c2cc(OC)c(OC)c(O)c2[C@@]23CC[C@H](OC)C[C@@H]2N1CC3 [Compound 3, 6-O-ethylzephyranine F]
- activity at 10 µM ([1]; MCF7, 48 h): 97%
- activity at 10 µM ([2]; MOLT-4, 48 h): 101%
- IC50 [3]: > 100 µM
- IC50 [4]: > 100 µM
- activity at 10 µM ([5]; 48 h): > 50%
- activity at 10 µM [6]: 108%
- activity at 10 µM ([7]; HT-29, 48 h): 103%
- activity at 10 µM ([8]; PANC-1, 48 h): 101%
- activity at 10 µM ([9]; MRC5, 48 h): 104%
- activity at 10 µM ([10]; SAOS-2, 48 h): 99%
- activity at 10 µM ([11]; A549, 48 h): 103%
- activity at 10 µM [12]: 108%
- activity at 10 µM ([13]; A2780, 48 h): 110%

Structure (SMILES): CCO[C@H]1c2cc(OC)c(OC)cc2[C@@]23CC[C@H](OC)C[C@@H]2N1CC3 [Compound 4, 6-O-ethylzephyranine E]
- activity at 10 µM ([1]; MCF7, 48 h): 96%
- activity at 10 µM ([2]; MOLT-4, 48 h): 101%
- IC50 [3]: > 100 µM
- IC50 [4]: > 100 µM
- activity at 10 µM ([5]; 48 h): > 50%
- activity at 10 µM [6]: 109%
- activity at 10 µM ([7]; HT-29, 48 h): 91%
- activity at 10 µM ([8]; PANC-1, 48 h): 88%
- activity at 10 µM ([9]; MRC5, 48 h): 99%
- activity at 10 µM ([10]; SAOS-2, 48 h): 98%
- activity at 10 µM ([11]; A549, 48 h): 100%
- activity at 10 µM [12]: 90%
- activity at 10 µM ([13]; A2780, 48 h): 85%

Structure (SMILES): COc1cc2c(cc1OC)[C@@H]1[C@H](O)[C@@H](OC)[C@H](O)C3=CCN(C2)[C@H]31 [Compound 6, narcissidine]
- activity at 10 µM [1, 14]: 103%
- activity at 10 µM [2, 15]: 101%
- IC50 [3]: > 100 µM
- IC50 [4]: > 100 µM
- activity at 10 µM [5, 16]: > 50%
- activity at 10 µM [6, 17]: 123%
- activity at 10 µM [7, 18]: 108%
- activity at 10 µM [8, 19]: 102%
- activity at 10 µM [9, 20]: 101%
- activity at 10 µM [10, 21]: 101%
- activity at 10 µM [11, 22]: 113%
- activity at 10 µM [12, 17]: 111%
- activity at 10 µM [13, 23]: 101%

Structure (SMILES): COc1ccc2c3c1O[C@H]1C[C@@H](O)CC[C@@]31CCNC2 [Compound 7, norlycoramine]
- activity at 10 µM ([1]; MCF7, 48 h): 97%
- activity at 10 µM ([2]; MOLT-4, 48 h): 99%
- IC50 [3]: > 100 µM and 155 µM
- IC50 [4]: > 100 µM
- activity at 10 µM ([5]; 48 h): > 50%
- activity at 10 µM [6]: 98%
- activity at 10 µM ([7]; HT-29, 48 h): 100%
- activity at 10 µM ([8]; PANC-1, 48 h): 103%
- activity at 10 µM ([9]; MRC5, 48 h): 98%
- activity at 10 µM ([10]; SAOS-2, 48 h): 97%
- activity at 10 µM ([11]; A549, 48 h): 103%
- activity at 10 µM [12]: 103%
- activity at 10 µM ([13]; A2780, 48 h): 97%

Structure (SMILES): COc1cc2c(c(O)c1OC)[C@@]13CC[C@H](O)C[C@@H]1N(CC3)C2O (some centres unmarked) [Compound 8, zephyranine C]
- activity at 10 µM ([1]; MCF7, 48 h): 112%
- activity at 10 µM ([2]; MOLT-4, 48 h): 98%
- IC50 [3]: > 100 µM
- IC50 [4]: > 100 µM
- activity at 10 µM ([5]; 48 h): > 50%
- activity at 10 µM [6]: 117%
- activity at 10 µM ([7]; HT-29, 48 h): 121%
- activity at 10 µM ([8]; PANC-1, 48 h): 110%
- activity at 10 µM ([9]; MRC5, 48 h): 100%
- activity at 10 µM ([10]; SAOS-2, 48 h): 111%
- activity at 10 µM ([11]; A549, 48 h): 117%
- activity at 10 µM [12]: 109%
- activity at 10 µM ([13]; A2780, 48 h): 105%
